The results in this text go back to paper PMC12133982, “Predominant T-cell epitopes of SARS-CoV-2 restricted by multiple prevalent HLA-B and HLA-C allotypes in Northeast Asia” (Frontiers in Immunology, 2025).

The target of one assay is HLA-B3501 (Homo sapiens, UniProt P01889, A329T/A93T/A95T/C349S/D201E/D98Y/E176V/E187L/E204Q/E69T/I218V/K202T/L119I/Q94N/R155S/R180L/S121R/S35A/S48A/T118I/V127L/V306I/V36M/Y140S/Y91F). The experiment in a line: Competitive peptide binding assay, CIR-B3501. The conditions noted are these: HMy2.CIR-B3501 cells, reference Cy5-[…], class from inhibition at 5 and 15 μM, flow cytometry MFI; read-out: Binding affinity with HLA-B3501. How it is done: (§1) Then, competitive peptide binding assays were performed.

The next assay addresses HLA-B1501 (Homo sapiens, UniProt P01889, A329T/A93T/A95T/C349S/D201E/D98Y/E187L/E204Q/E69M/E70A/K202T/N87E/Q94N/R155S/R180W/S121R/S35A/S48A/V306I/V36M/Y140S/Y91S). Briefly: Competitive peptide binding assay, CIR-B1501. To be noted: HMy2.CIR-B1501 cells, reference Cy5-[…], class from inhibition at 5 and 15 μM, flow cytometry MFI; read-out: Binding affinity with HLA-B1501. How it is done:
as §1
(A flow cytometer gives signals particle by particle.)

The target in another assay is HLA-B1301 (Homo sapiens, UniProt P01889, A65T/A93T/A95T/D138N/D201E/D98Y/E176V/E204Q/E69M/E70A/G107R/K202T/L105A/L119I/N104T/N87E/Q94N/R106L/R155S/R169L/R180L/S101N/S121R/S35A/S48T/T118I/V127L/V36M/Y140L/Y91S). Briefly: Competitive peptide binding assay, CIR-B1301. To be noted: HMy2.CIR-B1301 cells, reference Cy5-[…], class from inhibition at 5 and 15 μM, flow cytometry MFI; read-out: Binding affinity with HLA-B1301. How it is done: as §1

A further assay concerns the target HLA-B5801 (Homo sapiens, UniProt P01889, A329T/C349S/D201E/D98Y/E176V/E187L/E204Q/E69T/G107R/I218V/I90N/K202T/L105A/L119I/N104I/N87E/Q89R/Q94S/R106L/R155S/R180L/R86G/S101N/S121R/S35A/S48A/T118I/V127L/V306I/V36M/Y140S/Y91M). The experiment in a line: Competitive peptide binding assay, CIR-B5801. The conditions noted are these: HMy2.CIR-B5801 cells, reference Cy5-[…], class from inhibition at 5 and 15 μM, flow cytometry MFI; read-out: Binding affinity with HLA-B5801. How it is done: as §1

For a further assay, the target named is T1, HLA-B0702 (Homo sapiens, UniProt P01889).
T1 construct: expressed in transfected cells; host or cells: HMy2.CIR
Briefly: Competitive peptide binding assay, CIR-B0702. To be noted: HMy2.CIR-B0702 cells, reference Cy5-[…], class from inhibition at 5 and 15 μM, flow cytometry MFI. How it is done:
as §1

Another assay has as its target HLA-B4601 (Homo sapiens, UniProt P01889, A329T/A93R/C349S/D201E/E100V/E187L/E204Q/E69M/E70A/I90K/K202T/N87E/R155S/R180W/S121R/S35A/S48A/V306I/V36M/Y140S). Briefly: Competitive peptide binding assay, CIR-B4601. The conditions noted are these: HMy2.CIR-B4601 cells, reference Cy5-[…], class from inhibition at 5 and 15 μM, flow cytometry MFI; read-out: Binding affinity with HLA-B4601. How it is done: as §1

The next assay has as its target HLA-C0702 (Homo sapiens, UniProt P10321). Briefly: Competitive peptide binding assay, CIR-C0702.
For the next assay, the target named is HLA-C0304 (Homo sapiens, UniProt P10321, A176E/A330V/A97T/C25G/C350S/D114A/D33Y/E197K/L119I/L127V/L171W/L218V/M285V/M309V/M331V/P208H/Q277E/Q291P/R243W/R45H/S123Y/S140Y/S297R/S48A/T118I/T187L/T329A/T363A/V319A). The experiment in a line: Competitive peptide binding assay, CIR-C0304. To be noted: HMy2.CIR-C0304 cells, reference Cy5-[…], class from inhibition at 5 and 15 μM, flow cytometry MFI; read-out: Binding affinity with HLA-C0304. How it is done: as §1

Another assay deals with HLA-C0102 (Homo sapiens, UniProt P10321, A176E/A330V/A35S/A97T/C350S/D114A/D33F/L171W/L180R/L218V/M285V/M309V/M331V/P208H/Q277E/Q291P/R121W/R243W/R30K/S123C/S140Y/S297R/T329A/T363A/V272M/V319A). Briefly: Competitive peptide binding assay, CIR-C0102. How it is done:
as §1

Another assay concerns the target HLA-C0303 (Homo sapiens, UniProt P10321, A176E/A330V/A97T/C25G/C350S/D114A/D33Y/E197K/G115R/L119I/L127V/L171W/L218V/M285V/M309V/M331V/P208H/Q277E/Q291P/R243W/R45H/S123Y/S140Y/S297R/S48A/T118I/T187L/T329A/T363A/V319A). The experiment in a line: Competitive peptide binding assay, CIR-C0303. The conditions noted are these: HMy2.CIR-C0303 cells, reference Cy5-[…], class from inhibition at 5 and 15 μM, flow cytometry MFI; read-out: Binding affinity with HLA-C0303. How it is done:
as §1

In a further assay the target is HLA-C0302 (Homo sapiens, UniProt P10321, A176E/A330V/A97T/C25G/C350S/D114A/D33Y/E197K/L127V/L171W/L218V/M285V/M309V/M331V/P208H/Q277E/Q291P/R243W/R45H/S123Y/S297R/S48A/T118I/T187L/T329A/T363A/V319A). Briefly: Competitive peptide binding assay, CIR-C0302. The conditions noted are these: HMy2.CIR-C0302 cells, reference Cy5-[…], class from inhibition at 5 and 15 μM, flow cytometry MFI; read-out: Binding affinity with HLA-C0302. How it is done: as §1

The next assay deals with HLA-C0801 (Homo sapiens, UniProt P10321, A176T/A330V/A97T/C350S/D114A/D138N/D33Y/E201K/E299G/L171W/L218V/M285V/M309V/M331V/P208H/Q277E/Q291P/R59Q/S123Y/S140F/S297R/S48A/T329A/T363A/V319A/V328M). Briefly: Competitive peptide binding assay, CIR-C0801. The conditions noted are these: HMy2.CIR-C0801 cells, reference Cy5-[…], class from inhibition at 5 and 15 μM, flow cytometry MFI; read-out: Binding affinity with HLA-C0801. How it is done:
as §1

The next assay deals with HLA-C0602 (Homo sapiens, UniProt P10321, A176E/A330V/C350S/L171W/L180W/L218V/M285V/M309V/M331V/N104K/P208H/Q277E/Q291P/R121W/S101N/S123Y/S297R/T329A/T363A/V319A/V328M). The experiment in a line: Competitive peptide binding assay, CIR-C0602.
A further assay has as its target HLA-C1402 (Homo sapiens, UniProt P10321, A176E/A330V/A35S/A97T/C350S/D114A/D33S/L171W/L180R/L218V/M285V/M309V/M331V/P208H/Q277E/Q291P/R121W/R243W/S123F/S297R/S48A/T329A/T363A/V319A). Briefly: Competitive peptide binding assay, CIR-C1402. The conditions noted are these: HMy2.CIR-C1402 cells, reference Cy5-[…], class from inhibition at 5 and 15 μM, flow cytometry MFI; read-out: Binding affinity with HLA-C1402. How it is done:
as §1

The next assay concerns the target HLA-B1502 (Homo sapiens, UniProt P01889, A329T/A93T/A95T/C349S/D201E/D98Y/E187L/E204Q/E69M/E70A/H137Y/K202T/L119I/Q94N/R155S/R180L/S121R/S35A/S48A/T118I/V306I/V36M/Y140S/Y91S). Briefly: Competitive peptide binding assay, CIR-B1502. The conditions noted are these: HMy2.CIR-B1502 cells, reference Cy5-[…], class from inhibition at 5 and 15 μM, flow cytometry MFI; read-out: Binding affinity with HLA-B1502. How it is done:
as §1

A further assay has as its target HLA-C0401 (Homo sapiens, UniProt P10321, A176E/A330V/A35S/A73E/C25G/C350S/D138N/D33S/E299K/L171W/L180R/L218V/M285V/M309V/M331V/N104K/P208H/Q277E/Q291P/R243W/R38W/S101N/S123F/S140F/S297R/S48A/T329A/T363A/V319A/V327M). Briefly: Competitive peptide binding assay, CIR-C0401. To be noted: HMy2.CIR-C0401 cells, reference Cy5-[…], class from inhibition at 5 and 15 μM, flow cytometry MFI; read-out: Binding affinity with HLA-C0401. How it is done: as §1

[1] abbreviates: HMy2.CIR-C0102 cells, reference Cy5-[…], class from inhibition at 5 and 15 μM, flow cytometry MFI, read-out: Binding affinity with HLA-C0102.
The mark [2] stands for this setting: read-out: Inhibition % of Cy5-reference peptide binding.

Where two headings read alike, the source gives them in different places. Peptide text beside a SMILES is read from it.

Turning to `CSCC[C@H](NC(=O)[C@H](CO)NC(=O)[C@H](CCC(N)=O)NC(=O)[C@H](CCC(N)=O)NC(=O)[C@H](CC(C)C)NC(=O)[C@H](CCC(N)=O)NC(=O)[C@H](CCCCN)NC(=O)[C@H](CO)NC(=O)[C@@H](N)Cc1ccccc1)C(=O)O` [Epitope Y135] (H-FSKQLQQSM-OH; N-terminus and C-terminus assumed), the IC50 at HLA-B3501 is over 15 µM; at HLA-B1501, under 5 µM; on HLA-B1301 it was over 15 µM; at HLA-B5801 it was 5 to 15 µM; at HLA-B0702, 5 to 15 µM; at HLA-B4601 it was under 5 µM.

On to `CSCC[C@H](NC(=O)[C@H](CO)NC(=O)[C@H](CCC(N)=O)NC(=O)[C@H](CCC(N)=O)NC(=O)[C@H](CC(C)C)NC(=O)[C@H](CCC(N)=O)NC(=O)[C@H](CCCCN)NC(=O)[C@H](CO)NC(=O)[C@@H](N)Cc1ccccc1)C(=O)O` [Epitope M14] (H-FSKQLQQSM-OH; N-terminus and C-terminus assumed), for which the IC50 was 5 to 15 µM on HLA-C0702; 5 to 15 µM on HLA-C0304; over 15 µM on HLA-C0102 (setting [1]); under 5 µM at HLA-C0303; under 5 µM at HLA-C0302; over 15 µM on HLA-C0801.

Take `CC[C@H](C)[C@H](NC(=O)[C@H](Cc1ccccc1)NC(=O)[C@@H](N)Cc1ccc(O)cc1)C(=O)N[C@@H](C)C(=O)N[C@@H](CO)C(=O)N[C@@H](Cc1ccccc1)C(=O)N[C@@H](CCCNC(=N)N)C(=O)N[C@@H](CC(C)C)C(=O)N[C@@H](Cc1ccccc1)C(=O)O` [Epitope M107] (H-YFIASFRLF-OH; N-terminus and C-terminus assumed): the IC50 on HLA-C0602 is over 15 µM; at HLA-C0702, over 15 µM; on HLA-C1402, under 5 µM; on HLA-C0303 it was 5 to 15 µM; on HLA-C0801, over 15 µM.

Turning to `CC(C)C[C@H](NC(=O)[C@H](CC(=O)O)NC(=O)[C@H](C)NC(=O)[C@H](C)NC(=O)[C@@H]1CCCN1C(=O)[C@@H](N)CC(C)C)C(=O)N[C@@H](CC(=O)O)C(=O)N[C@@H](CC(=O)O)C(=O)N[C@@H](Cc1ccccc1)C(=O)O` [Epitope Y180] (H-LPAADLDDF-OH; N-terminus and C-terminus assumed), the IC50 was 5 to 15 µM on HLA-B1501; over 15 µM at HLA-B1301; over 15 µM on HLA-B5801; over 15 µM on HLA-B0702; over 15 µM on HLA-B4601; over 15 µM at HLA-B1502.

For `CSCC[C@H](NC(=O)[C@H](C)NC(=O)[C@@H](N)Cc1ccccc1)C(=O)N[C@@H](CCC(N)=O)C(=O)N[C@@H](CCSC)C(=O)N[C@@H](C)C(=O)N[C@@H](Cc1ccc(O)cc1)C(=O)N[C@@H](CCCNC(=N)N)C(=O)N[C@@H](Cc1ccccc1)C(=O)O` [Epitope M63], the IC50 is over 15 µM at HLA-C0602; over 15 µM on HLA-C0702; over 15 µM at HLA-C0102 (setting [1]); over 15 µM at HLA-C0401; 5 to 15 µM at HLA-C0303; under 5 µM on HLA-C0302. Also, on HLA-C0801, the IC50 was over 15 µM.

As to `CC(C)[C@H](NC(=O)[C@@H](NC(=O)[C@H](Cc1ccccc1)NC(=O)[C@@H]1CCCN1C(=O)[C@@H](NC(=O)CNC(=O)[C@H](CC(=O)O)NC(=O)[C@@H](NC(=O)[C@@H](N)Cc1ccccc1)C(C)C)C(C)C)C(C)C)C(=O)O` [Epitope M96] (H-FVDGVPFVV-OH; N-terminus and C-terminus assumed), the IC50 is over 15 µM at HLA-C0702; over 15 µM at HLA-C0102; 5 to 15 µM on HLA-C1402; over 15 µM at HLA-C0303; under 5 µM at HLA-C0801. Moreover, the inhibition (in general, the drop in the measured response relative to a control, in per cent) at 5 µM at HLA-C0102 (setting [2]) was 3.72%. For the same molecule, on HLA-C0102 (setting [2]), the inhibition at 15 µM was 20.7%.
